The target in experiment [1] is T1, mouse TSPO recombinant protein (Mus musculus, UniProt P50637).
T1 construct: made in house; host or cells: Escherichia coli BL21(DE3) pLysS, pET15b vector
The experiment can be described thus: SPR multicycle kinetics, mouse TSPO in a lipid-free environment. The class given is binding. Particulars: CM5 chip, anti-His capture, read-out: affinity to mouse TSPO. How it is done:
Cells of the BL21(DE3) pLysS Escherichia coli strain were transformed with the pET15b vector, from which the expression of mouse TSPO recombinant protein was induced by 1 mM isopropyl-1-thiol-β-D-galactopyranoside as previously described ([Robert and Lacapère, 2010]; [Senicourt et al., 2017]). Cells were harvested and resuspended in lysis buffer (150 mM NaCl and 50 mM HEPES-Na, pH 7.8) with the addition of 1 mg/ml lysozyme and sonicated thoroughly. The lysate was centrifuged at 15,000 g at 4°C for 20 min to pellet the insoluble inclusion bodies. The final pellet of inclusion bodies was solubilized in binding buffer (150 mM NaCl, 50 mM HEPES-Na, 1% SDS (wt/vol), pH 7.8) and was purified by the Ni-NTA gravity flow column.
SPR analyses were performed at 25°C with a Biacore T200 instrument. For proteoliposomes and liposomes (reference), they were immobilized on a series S L1 sensor chips. It is possible that the repeated regeneration steps in the multicycle kinetics process impairs the activity of TSPO proteoliposomes, thus we were unable to use multicycle kinetics to effectively determine the affinity of TSPO and its ligands. Therefore, the single cycle kinetics, which assumes to be as robust as the classical multicycle kinetics for measuring affinity, was used. Kinetic rate constants for the various analytes were determined using single cycle protocols where five serial 2-fold dilutions of the analytes were injected for 180 s without intervening regeneration, followed by a 300 s dissociation phase after the last injection. Interactions were measured at 30 μl/min. PBS, with addition of 1% DMSO (pH 7.4), was used as running buffer. Three consecutive 1 min injections with 10 μl/min of glycine HCl 3.0 at the end of each single-cycle kinetics regenerated the chip. For mouse TSPO in a lipid-free environment, affinity was measured according to established methods with minor modifications ([Zhang et al., 2015]). Briefly, HBS-EP buffer was used as the running buffer. […]

Another experiment deals with TSPO. The arrangement: method as in Awad and Gavish, 1987; Verma et al., 1987. Particulars: radioligand binding experiment results from literatures, ref Awad and Gavish, 1987, Verma et al.; cited from earlier work.
In experiment [2] the target is T2, TSPO from rat cerebral cortex (Rattus norvegicus, UniProt P16257).
T2 construct: from tissue; host or cells: rat (SD) cerebral cortex, crude mitochondrial/membrane pellet
T2 sequence (P16257 whole entry): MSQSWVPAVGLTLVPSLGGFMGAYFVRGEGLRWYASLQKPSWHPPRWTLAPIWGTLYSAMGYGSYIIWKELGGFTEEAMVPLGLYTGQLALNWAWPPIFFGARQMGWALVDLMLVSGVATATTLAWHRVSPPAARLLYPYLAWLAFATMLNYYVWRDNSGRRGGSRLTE
Put plainly: 3H-PK11195 equilibrium binding in presence of koumine. The method, then:
(§1) Briefly, male SD rats (240 ± 10 g) were killed by decapitation, and the cerebral cortices were dissected. The tissues were homogenized in 10 volumes (ml/g) of 50 mM Tris HCl buffer containing 0.32 M sucrose (pH 7.4). The homogenates were centrifuged at 1,000 g for 10 min at 4°C. The resulting pellets were discarded, and the supernatants were centrifuged at 9,000 g for 15 min. The pellets were resuspended in 10 volumes of Tris HCl buffer containing 0.32 M sucrose (pH 7.4) and centrifuged at 13,000 g for 30 min, then resuspended in 10 volumes of Tris HCl buffer and centrifuged again at 13,000 g for 30 min. The final pellets were suspended in Tris HCl buffer and used in the binding assays. Protein concentrations were measured using the BCA Protein Assay Kit (ThermoFisher Scientific) according to the manufacturer’s instructions.
After incubation at 4°C for 2 h, the reaction was terminated by the addition of ice-cold 50 mM Tris HCl buffer (pH 7.4) followed by vacuum filtration through Filtermat A glass microfiber filters (pretreated with 0.2% polyethylenimine) using a Brandel cell harvester. The filters were washed rapidly, and radioactivity was determined by liquid scintillation spectrometry.

The target of experiment [3] is T2, TSPO from rat cerebral cortex. Put plainly: 3H-PK11195 dissociation kinetics. The class given is binding. How it is done: as §1
Then, samples were filtered through Filtermat A glass microfiber filters (pretreated with 0.2% polyethylenimine) using a Brandel cell harvester, and the radioactivities were measured at the indicated time points.

In experiment [4] the test system is TSPO from the rat cerebral cortex. Further details: method as in Jin, 2014. Particulars: previous competitive binding assay; ref Jin, 2014; cited from earlier work.

T1 sequence (P50637 whole entry): as the sequence (P16257 whole entry) above, with S2P, Q3E, I67V, E77D, V110A, M113L, M149V, T168P counted along it

On to `CN1C(=O)CN=C(c2ccc(Cl)cc2)c2cc(Cl)ccc21` [Ro5-4864, reference compound], for which the Kd in experiment [1] is 170 ± 6.07 µM; on TSPO, 0.0073 ± 0.0008 µM.

With `C=C[C@@]12CN(C)[C@H]3C[C@]14C(=Nc1ccccc14)[C@H]1C[C@@H]2[C@@H]3CO1` [koumine], the Kd in experiment [1] worked out at 97.4 ± 1.76 µM. Further, the “effect on binding of 0.1 nM 3H-PK11195” value in experiment [2] (10^−10 M and 10^−6 M koumine only) is recorded as “significantly increased the binding”; in experiment [2] (all concentrations of koumine, 10^−12–10^−3 M, not dose dependent), “tended to increase the binding”. In addition, the “dissociation rate of 3H-PK11195 relative to vehicle group” value in experiment [3] (in presence of 10^−6 M koumine) stood at 72%; in experiment [3] (in presence of 10^−10 M koumine) it was 81%. The “effect on binding of 3H-PK11195 with TSPO” value in experiment [4] is “significantly increased the binding”.

These data come from publication PMC8264504, “Identification of Koumine as a Translocator Protein 18 kDa Positive Allosteric Modulator for the Treatment of Inflammatory and Neuropathic Pain” (Frontiers in Pharmacology, 2021).
